Laboratory results reported in PubChem BioAssay AID1963831 (Molecular Pharmacology Branch, DTP, NCI, 2024).
pIC50: −log10 of the molar value.

Test system: 889142-216-R-J1-PDC complex spheroid viability
Test: Anticancer human tumor 889142-216-R-J1-PDC patient-derived bladder carcinoma cell line growth inhibition [POLQ]
Settings: for pIC50: curve of first compound; for viability, T/C: stronger effect = lower value
Method: Multicellular complex tumor spheroid response to Polymerase (POL) inhibitors (novobiocin, ART-558, RP6685) in combination with a variety of drugs and investigational agents in selected tumor cell lines
The POL inhibitors (novobiocin, ART-558, and RP6685) were evaluated both individually and in combination with standard of care and investigational anticancer small molecules within a complex spheroid model of solid tumors. . Complex spheroids include a stromal component modeled by human endothelial cells (HUVEC) and fibroblasts modeled by human mesenchymal stem cells (MSCs). The concentration ranges selected for each drug and investigational agent were based upon clinically achievable concentrations if the clinical Cmax of the agent was known.
Compounds. The drugs and investigational agents: novobiocin (NSC847541), ART-558 (NSC835418), RP-6685 (NSC848927), peposertib (NSC802822), ceralasertib (NSC780249), elimusertib (NSC800525), camonsertib (NSC841442), AZD-1390 (NSC803789), olaparib (NSC753686), talazoparib (NSC767125), rucaparib (NSC756644), sotorasib (NSC818433), MRTX-1133 (NSC836407), SN-38 (NSC673596), topotecan (NSC609699), epotoside (NSC141540), doxorubicin (NSC123127), gemcitabine (NSC613327), 5-fluorouracil (NSC19893), paclitaxel (NSC125973), vemurafenib (NSC761431), MSA-2 (NSC828583), SN-011 (NSC837082), adavosertib (NSC754352), prexasertib (NSC758257), carboplatin (NSC241240) and oxaliplatin (NSC266046), were obtained from the National Cancer Institute (NCI) Developmental Therapeutics Program Chemical Repository (21). The FDA-approved anticancer drug set is available from the Developmental Therapeutics Program at https://dtp.cancer.gov/organization/dscb/obtaining/. […] The stock solutions were prepared in dimethyl sulfoxide (DMSO, Sigma-Aldrich, St. Louis, MO, cat. D2650), except for the platinum compounds which were prepared in saline (Quality Biological, Gaithersburg, MD, cat. 114-055-101), at 800-fold the tested concentration and stored at -70 degrees C prior to their use. All drugs and investigational agents were tested over a range starting from a high concentration at or near the clinical Cmax and decreasing in half-log increments. If the clinical Cmax for an agent had not been determined, the highest concentration tested was 10 microM, except for SN-38, which was tested at a high concentration of 1 microM.
Cell Culture. All cells were maintained in an incubator at 37 degrees C and 5% CO2 with 95% humidity. The PDC lines were cultured according to standard operating procedures established by the NCI PDMR (https://pdmr.cancer.gov). Table 3 of the manuscript, lists the cell lines along with the number of the three cell types plated to form the mct-spheroids and media for tumor cell growth. After thawing, all PDC lines, except 997537-175-T-J1-PDC and 415267-285-R-J2-PDC, were cultured in Matrigel-coated flasks prepared with a working solution of 1X Ham's F-12 nutrient mix, without supplementation (Thermo Fisher Scientific, cat. 11765054), 100 U/mL penicillin-streptomycin (Thermo Fisher Scientific, cat. 15140122), and 2.5% Matrigel (Corning Inc., Corning, NY, cat. 354248) for the first three passages. The two PDC lines 997537-175-T-J1-PDC and 415267-285-R-J2-PDC were cultured on uncoated flasks. The 857933-349-R-J2-PDC line was cultured in 6C/Colon 1B media containing advanced DMEM/F-12 (Thermo Fisher Scientific, cat. 12634028), 10 mM HEPES (Thermo Fisher Scientific, cat. 15630080), 1X GlutaMAX supplement (Thermo Fisher Scientific, cat. 35050061), 0.1 mg/mL primocin (InvivoGen, San Diego, CA, cat. ant-pm-2), 10% defined fetal bovine serum, heat inactivated (HyClone Laboratories Inc., Logan, UT, cat. SH30070.03HI), 50% L-WRN conditioned media (ATCC, cat. CRL-3276), 1.25 mM N-Acetyl-L-cysteine (Sigma-Aldrich, cat. A9165), 10 mM nicotinamide (Sigma-Aldrich, cat. N0636), 1X B-27 supplement (Thermo Fisher Scientific, cat. 17504044), 1X N-2 supplement (Thermo Fisher Scientific, cat. […]

[1] = second compound 0.0316 µM, first compound 0.0316 µM
[2] = second compound 0.0316 µM, first compound 0.1 µM
[3] = second compound 0.0316 µM, first compound 0.316 µM
[4] = second compound 0.0316 µM, first compound 1 µM
[5] = second compound 0.0316 µM, first compound 3.16 µM
[6] = second compound 0.0316 µM, first compound 10 µM
[7] = second compound 0.1 µM, first compound 0.0316 µM
[8] = second compound 0.1 µM, first compound 0.1 µM
[9] = second compound 0.1 µM, first compound 0.316 µM
[10] = second compound 0.1 µM, first compound 1 µM
[11] = second compound 0.1 µM, first compound 3.16 µM
[12] = second compound 0.1 µM, first compound 10 µM
[13] = second compound 0.316 µM, first compound 0.0316 µM
[14] = second compound 0.316 µM, first compound 0.1 µM
[15] = second compound 0.316 µM, first compound 0.316 µM
[16] = second compound 0.316 µM, first compound 1 µM
[17] = second compound 0.316 µM, first compound 3.16 µM
[18] = second compound 0.316 µM, first compound 10 µM
[19] = second compound 1 µM, first compound 0.0316 µM
[20] = second compound 1 µM, first compound 0.1 µM
[21] = second compound 1 µM, first compound 0.316 µM
[22] = second compound 1 µM, first compound 1 µM
[23] = second compound 1 µM, first compound 3.16 µM
[24] = second compound 1 µM, first compound 10 µM
[25] = second compound 3.16 µM, first compound 0.0316 µM
[26] = second compound 3.16 µM, first compound 0.1 µM
[27] = second compound 3.16 µM, first compound 0.316 µM
[28] = second compound 3.16 µM, first compound 1 µM
[29] = second compound 3.16 µM, first compound 3.16 µM
[30] = second compound 3.16 µM, first compound 10 µM
[31] = second compound 10 µM, first compound 0.0316 µM
[32] = second compound 10 µM, first compound 0.1 µM
[33] = second compound 10 µM, first compound 0.316 µM
[34] = second compound 10 µM, first compound 1 µM
[35] = second compound 10 µM, first compound 3.16 µM
[36] = second compound 10 µM, first compound 10 µM
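Further: spheroids exposed to compounds for seven days.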
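Wherever viability, T/C is given: 100% = DMSO vehicle control viability.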

Work on `Nc1ccn(C2OC(CO)C(O)C2(F)F)c(=O)n1` (centres undefined) + Nc1ccc(C#CCN(C(=O)Cc2ncc(C(F)(F)F)cc2C(F)(F)F)c2ccc(F)cc2)nn1 yielded a pIC50 (second compound 0.0316 µM) of 6.63, a pIC50 (second compound 0.1 µM) of 6.41 and a pIC50 (second compound 0.316 µM) of 6.44. The pIC50 (second compound 1 µM) was 6.53, the pIC50 (second compound 3.16 µM) was 5.47 and the pIC50 (second compound 10 µM) was 5.28. For the same compound, the viability, T/C [1] was 74.1%, the viability, T/C [2] was 56.1% and the viability, T/C [3] was 46%. The viability, T/C [4] was 45.2%, the viability, T/C [5] was 40.9% and the viability, T/C [6] was 35.9%. It also gave a viability, T/C [7] of 62.8%, a viability, T/C [8] of 57.8% and a viability, T/C [9] of 48.9%. For the same compound, the viability, T/C [10] was 47.2%, the viability, T/C [11] was 38.8% and the viability, T/C [12] was 34.5%. The viability, T/C [13] was 61.8%, the viability, T/C [14] was 56.1% and the viability, T/C [15] was 50.9%. For the same compound, the viability, T/C [16] was 44%, the viability, T/C [17] was 45.6% and the viability, T/C [18] was 39.6%. For the same compound, the viability, T/C [19] was 69.8%, the viability, T/C [20] was 55.6% and the viability, T/C [21] was 47%. The viability, T/C [22] was 48.5%, the viability, T/C [23] was 43.5% and the viability, T/C [24] was 36.7%. For the same compound, the viability, T/C [25] was 56.4%, the viability, T/C [26] was 60.7% and the viability, T/C [27] was 60%. For the same compound, the viability, T/C [28] was 55.7%, the viability, T/C [29] was 49.5% and the viability, T/C [30] was 39.7%. It also gave a viability, T/C [31] of 88.9%, a viability, T/C [32] of 73.6% and a viability, T/C [33] of 69.5%. For the same compound, the viability, T/C [34] was 51.7%, the viability, T/C [35] was 55.7% and the viability, T/C [36] was 46.5%.

Compound `C#Cc1c(F)ccc2cc(O)cc(-c3ncc4c(N5CC6CCC(C5)N6)nc(OCC56CCCN5CC(F)C6)nc4c3F)c12` (centres undefined) + Nc1ccc(C#CCN(C(=O)Cc2ncc(C(F)(F)F)cc2C(F)(F)F)c2ccc(F)cc2)nn1 has a pIC50 (second compound 0.0316 µM) of less than 5.00, a pIC50 (second compound 0.1 µM) of 5.12 and a pIC50 (second compound 0.316 µM) of less than 5.00. The pIC50 (second compound 1 µM) was less than 5.00, the pIC50 (second compound 3.16 µM) was less than 5.00 and the pIC50 (second compound 10 µM) was 5.12. For the same compound, the viability, T/C [1] was 101%, the viability, T/C [2] was 102% and the viability, T/C [3] was 75%. For the same compound, the viability, T/C [4] was 74.6%, the viability, T/C [5] was 84.8% and the viability, T/C [6] was 43.9%. For the same compound, the viability, T/C [7] was 103%, the viability, T/C [8] was 119% and the viability, T/C [9] was 85.3%. For the same compound, the viability, T/C [10] was 79%, the viability, T/C [11] was 86.6% and the viability, T/C [12] was 38.9%. For the same compound, the viability, T/C [13] was 115%, the viability, T/C [14] was 99.4% and the viability, T/C [15] was 73.5%. It also gave a viability, T/C [16] of 116%, a viability, T/C [17] of 69.8% and a viability, T/C [18] of 49.7%. For the same compound, the viability, T/C [19] was 115%, the viability, T/C [20] was 102% and the viability, T/C [21] was 95.8%. The viability, T/C [22] was 76.7%, the viability, T/C [23] was 65.3% and the viability, T/C [24] was 52.5%. It also gave a viability, T/C [25] of 94%, a viability, T/C [26] of 98.1% and a viability, T/C [27] of 90.3%. It also gave a viability, T/C [28] of 131%, a viability, T/C [29] of 70.3% and a viability, T/C [30] of 63.8%. For the same compound, the viability, T/C [31] was 120%, the viability, T/C [32] was 81.6% and the viability, T/C [33] was 108%. For the same compound, the viability, T/C [34] was 75.5%, the viability, T/C [35] was 90.5% and the viability, T/C [36] was 38.8%.
